Converted amounts (≈) assume the structure as drawn.
Test system: Mycobacterium bovis BCG
Assay: microbe, parasite or virus in culture
Type: cell-based
Settings: for IC50: M. bovis BCG growth, 8 days incubation; for inhibition at 1 µg/mL: read-out: % Inhibition of growth of Mycobacterium Bovis BCG, at 1 μg/ml concentration
[1] = Mycobacterium tuberculosis variant bovis BCG, BCG, 192 h
[2] = Mycobacterium tuberculosis variant bovis BCG, BCG

Compound | IC50 [1] [µg/mL] | MIC90 [1] [µg/mL] | inhibition at 1 µg/mL [2] [%] | further results
C=CCCCCCCCCCO [Compound 10-undecenol, 10-undecenol, reference compound] | – | – | – | inhibition of M. bovis BCG (control experiment with aglycon) (FIG. 1d, doses 0.1 to 100 μg/ml): poor inhibitor
CO[C@H]1/C=C/O[C@@]2(C)Oc3c(C)c(O)c4c(O)c(c(/C=N/N5CCN(C)CC5)c(O)c4c3C2=O)NC(=O)/C(C)=C\C=C\[C@H](C)[C@H](O)[C@@H](C)[C@@H](O)[C@@H](C)[C@H](OC(C)=O)[C@@H]1C [Rifampicin, rifampicin, reference compound] | 0.02 (≈ 0.0243 µM) | – | – | inhibition at 0.2 µg/mL (Mycobacterium tuberculosis variant bovis BCG, BCG, read-out: % Inhibition of growth of Mycobacterium Bovis BCG, at 0.2 μg/ml): 99%
CC[C@@H](CO)NCCN[C@@H](CC)CO [Ethambutol, ethambutol, reference compound] | 0.2 (≈ 0.979 µM) | 2.9 (≈ 14.2 µM) | 85 | –
C=CCCCCCCCCCC1OC(CO)C(O)C1O (stereo not drawn) [Compound 1] | 1.1 (≈ 3.84 µM) | 15 (≈ 52.4 µM) | 48 | –
C=CCCCCCCCCCC1OC(COC2OC(CO)C(O)C2O)C(O)C1O (stereo not drawn) [Compound 4] | – | – | – | IC50: 19 µg/mL (≈ 45.4 µM); % Inhibition of growth of Mycobacterium Bovis BCG (at 1 μg/ml concentration): 28%
C=CCCCCCCCCC[C@H]1O[C@H](CO)[C@@H](O)[C@@H]1O [Compound 2] | 0.19 (≈ 0.663 µM) | 1.6 (≈ 5.59 µM) | 85 | IC50 (listed as α-C-glycoside): 0.2 µg/mL (≈ 0.698 µM)
